Assay results from ChEMBL document CHEMBL1201862, “PubChem BioAssay data set” (2004).
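96-well plates; 48 h exposure; 5 concentrations. Endpoints by linear interpolation between flanking doses. Not reached: highest tested concentration assigned. At the GI50, growth is halved.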 Active and inactive are the calls of the source. No stated cut-off is given here; in the data, active = GI50 up to about 1.1 µM and inactive = higher.

Columns and labels:
Experiment in all cases: NCI-60 cell line screen, 48 h
[1] = tested on: SF-268
[2] = tested on: HT-29
[3] = tested on: SK-OV-3
[4] = tested on: PC-3
[5] = tested on: HOP-62
[6] = tested on: SR
[7] = tested on: CCRF-CEM
[8] = tested on: NCI-H226
[9] = tested on: NCI/ADR-RES
[10] = tested on: RXF 393
[11] = tested on: SNB-19
[12] = tested on: MOLT-4
[13] = tested on: SW-620
[14] = tested on: MDA-MB-435
[15] = tested on: MDA-N
[16] = tested on: 786-0
[17] = tested on: ACHN
[18] = tested on: NCI-H522
[19] = tested on: Malme-3M
[20] = tested on: SK-MEL-2

Compound	GI50 [1]	GI50 [2]	GI50 [3]	GI50 [4]	GI50 [5]	GI50 [6]	GI50 [7]	GI50 [8]	GI50 [9]	GI50 [10]	GI50 [11]	GI50 [12]	GI50 [13]	GI50 [14]	GI50 [15]	GI50 [16]	GI50 [17]	GI50 [18]	GI50 [19]	GI50 [20]
COc1cc(O)c2c(=O)c3ccccc3n(C)c2c1	53.7 µM (inactive)	> 100 µM (inactive)	26.8 µM (inactive)	> 100 µM (inactive)	15.9 µM (inactive)	7.26 µM (inactive)	24 µM (inactive)	> 100 µM (inactive)	32.7 µM (inactive)	14.9 µM (inactive)	0.253 µM (active)	8.43 µM (inactive)	63.8 µM (inactive)	> 100 µM (inactive)	> 100 µM (inactive)	21.5 µM (inactive)	14 µM (inactive)	22.3 µM (inactive)	> 100 µM (inactive)	> 100 µM (inactive)
CC(=O)NC1CCC(NC(=O)OC(C)(C)C)C(NC(=O)OC(C)(C)C)C1 (stereo not given)	> 100 µM (inactive)	> 100 µM (inactive)	> 100 µM (inactive)	> 100 µM (inactive)	> 100 µM (inactive)	> 100 µM (inactive)	> 100 µM (inactive)	> 100 µM (inactive)	> 100 µM (inactive)	> 100 µM (inactive)	> 100 µM (inactive)	> 100 µM (inactive)	> 100 µM (inactive)	> 100 µM (inactive)	> 100 µM (inactive)	> 100 µM (inactive)	> 100 µM (inactive)	> 100 µM (inactive)	> 100 µM (inactive)	> 100 µM (inactive)
O=C1C(=O)N(c2cccc(C(F)(F)F)c2)C(=S)N1c1ccccc1	43.9 µM (inactive)	36.5 µM (inactive)	19.3 µM (inactive)	30.8 µM (inactive)	34.2 µM (inactive)	37.2 µM (inactive)	35.9 µM (inactive)	24.5 µM (inactive)	31.8 µM (inactive)	27.7 µM (inactive)	40.5 µM (inactive)	38 µM (inactive)	36.2 µM (inactive)	27.4 µM (inactive)	25.5 µM (inactive)	33.3 µM (inactive)	16.4 µM (inactive)	6.44 µM (inactive)	31.8 µM (inactive)	19.1 µM (inactive)
O=C(CCc1cc(O)cc(O)c1)NCCCNC(=O)CCc1cc(O)cc(O)c1	> 100 µM (inactive)	> 100 µM (inactive)	> 100 µM (inactive)	> 100 µM (inactive)	> 100 µM (inactive)	> 100 µM (inactive)	> 100 µM (inactive)	> 100 µM (inactive)	> 100 µM (inactive)	> 100 µM (inactive)	> 100 µM (inactive)	> 100 µM (inactive)	> 100 µM (inactive)	> 100 µM (inactive)	> 100 µM (inactive)	> 100 µM (inactive)	> 100 µM (inactive)	> 100 µM (inactive)	> 100 µM (inactive)	> 100 µM (inactive)
CN(C)CCCN=C(N)N	> 100 µM (inactive)	> 100 µM (inactive)	> 100 µM (inactive)	> 100 µM (inactive)	> 100 µM (inactive)	> 100 µM (inactive)	> 100 µM (inactive)	> 100 µM (inactive)	> 100 µM (inactive)	> 100 µM (inactive)	> 100 µM (inactive)	> 100 µM (inactive)	> 100 µM (inactive)	> 100 µM (inactive)	> 100 µM (inactive)	> 100 µM (inactive)	> 100 µM (inactive)	> 100 µM (inactive)	> 100 µM (inactive)	> 100 µM (inactive)
O=C1C(=Cc2ccco2)C(=O)C2CCCCC12 (stereo not given)	> 100 µM (inactive)	> 100 µM (inactive)	> 100 µM (inactive)	> 100 µM (inactive)	> 100 µM (inactive)	> 100 µM (inactive)	> 100 µM (inactive)	> 100 µM (inactive)	> 100 µM (inactive)	> 100 µM (inactive)	> 100 µM (inactive)	> 100 µM (inactive)	> 100 µM (inactive)	> 100 µM (inactive)	> 100 µM (inactive)	> 100 µM (inactive)	> 100 µM (inactive)	> 100 µM (inactive)	> 100 µM (inactive)	> 100 µM (inactive)
